# In publication PMC9822066 (Molecules, 2022):
# pIC50, pKi: −log10 of the molar value. Where “and” joins values, the source holds several entries; their conditions need not be identical. Equal entries are not always repeated. Where two headings read alike, the source gives them in different places.
# Tests used:
# [1] = tested on: SH-SY5Y neuroblastoma cells; experiment: Highest non-toxic concentration estimated before the neuroprotection assay; type: cell-based
# Description: […]. however, it was statistically insignificant. […] Statistical significance was calculated against the number of necrotic cells in the H2O2-treated population. Additionally, the MTS test was performed in which the viability of cells was measured.
# [2] = molecular target: T1, electric eel AChE (eeAChE) (Electrophorus electricus, UniProt O42275); experiment: biochemical; conditions: mean ± SEM, triplicate independent experiments; read-out: eeAChE IC50
# T1 construct: purchased Sigma–Aldrich (Steinheim, Germany)
# [3] = molecular target: BuChE from equine serum (eqBuChE) (Equus caballus, UniProt P81908); experiment: biochemical; type: biochemical; conditions: mean ± SEM, triplicate independent experiments
# [4] = tested on: SH-SY5Y neuroblastoma cells; experiment: Neuroprotection against H2O2, MTS viability assay; type: cell-based; conditions: 10 µM, 300 µM H2O2, 24 h
# hepatoma HepG2 cells = experiment: Hepatotoxicity, MTS viability of HepG2 cells
# Description: Doxorubicin (DX) at the concentration of 1 μM was used as the reference cytostatic drug.
# A multifunctional reader EnSpire (PerkinElmer, Waltham, MA, USA) was used to measure the absorbance.
# mice [5] = experiment: Passive Avoidance Test, scopolamine-induced amnesia; type: in vivo; design: unit not given here; conditions: mean ± SEM
# human H3R = molecular target: T2, human H3R (Homo sapiens, UniProt Q9Y5N1); experiment: [3H]Nα-methylhistamine radioligand binding assay in HEK293 cells stably expressing hH3R
# T2 construct: expressed in transfected cells; host or cells: HEK293
# Description: Final compounds were tested for their H3R affinity in a radioligand binding assay using [^3H]N^α-methylhistamine as radioligand in HEK293 cells stably expressing hH3R [25]. […] Affinity to hH3R stably expressed in HEK293 cells was evaluated in a radioligand binding assay as described previously. […] The radioactivity was counted in a MicroBeta Trilux counter (PerkinElmer). Data were fitted to a one-site curve-fitting equation with Prism 6 (GraphPad Software, San Diego, CA, USA) and Ki values were calculated from IC50 values (from at least three experiments performed in duplicates) according to the Cheng−Prusoff equation [52].
# [6] = molecular target: T3, BuChE from human serum (hBuChE) (Homo sapiens, UniProt P06276); experiment: Ellman's colorimetric assay, hBuChE inhibition; type: biochemical
# T3 construct: Human BuChE from human serum was provided by Vivonics (Bedford, MA, USA); purchased Vivonics (Bedford, MA, USA); host or cells: human serum
# [7] = Metabolic stability in mouse liver microsomes; type: in vitro ADME
# Description: The metabolic stability of 6 was investigated first in silico with the use of MetaSite 6.0.1 software.
# The in silico prediction of the most possible metabolic pathways was conducted by MetaSite 6.0.1. Software (Molecular Discovery Ltd., Borehamwood, UK). […] The compound was incubated for 120 min at 37 °C in TRIS-HCl buffer (pH 7.4) with the addition of NADPH Regeneration System (Promega, Madison, WI, USA). The LC/MS analysis and MS/MS fragmentations were used as a tool for the determination of the substrate remaining and the structures of the metabolites.
# eqBuChE = eqBuChE (Equus caballus, UniProt P81908); experiment: Kinetic study of eqBuChE inhibition (Lineweaver-Burk, Cornish-Bowden); type: biochemical, equine; conditions: substrate butyrylthiocholine
# Description: (§1) The inhibitor was tested in the concentrations giving enzyme activities between 30% and 80%. For each concentration of the inhibitor, substrate (ATC/BTC) was added at concentrations of 0.3, 0.24, 0.18, 0.12, 0.06, and 0.04 mM in the wells. The stock solutions of ATC and BTC (0.5 mM) were prepared in water and diluted before use. Each experiment was performed in triplicate. Vmax and Km values of the Michaelis−Menten kinetics were calculated by nonlinear regression from substrate−velocity curves. Lineweaver–Burk and Cornish–Bowden plots were calculated using linear regression in GraphPad Prism 5 (GraphPad Software, San Diego, CA, USA).
# [8] = tested on: SH-SY5Y neuroblastoma cells; experiment: Neuroprotection against H2O2, LDH necrosis assay; type: cell-based; conditions: 10 µM, 300 µM H2O2, 24 h
# [9] = PAMPA, triplicate
# eeAChE = molecular target: T4, eeAChE (Electrophorus electricus, UniProt O42275); experiment: Kinetic study of eeAChE inhibition (Lineweaver-Burk, Cornish-Bowden); type: biochemical, electric eel; conditions: substrate acetylthiocholine
# T4 construct: purchased Sigma–Aldrich (Steinheim, Germany)
# Description: as §1
# in vitro = conditions: PAMPA
# mice [10] = experiment: Formalin test; type: in vivo; conditions: Mus musculus, ip
# [11] = molecular target: T5, human recombinant AChE (hAChE) (Homo sapiens, UniProt P22303); experiment: Ellman's colorimetric assay, hAChE inhibition; type: biochemical
# T5 construct: purchased Sigma–Aldrich (Steinheim, Germany)
# hMAO B = molecular target: T6, hMAO B (Homo sapiens, UniProt P27338); experiment: Fluorometric MAO assay, hMAO B inhibition; type: biochemical; conditions: mean ± SEM of two independent experiments, read-out: hMAO B %Inh. at 1 µM
# T6 sequence (P27338 1-520): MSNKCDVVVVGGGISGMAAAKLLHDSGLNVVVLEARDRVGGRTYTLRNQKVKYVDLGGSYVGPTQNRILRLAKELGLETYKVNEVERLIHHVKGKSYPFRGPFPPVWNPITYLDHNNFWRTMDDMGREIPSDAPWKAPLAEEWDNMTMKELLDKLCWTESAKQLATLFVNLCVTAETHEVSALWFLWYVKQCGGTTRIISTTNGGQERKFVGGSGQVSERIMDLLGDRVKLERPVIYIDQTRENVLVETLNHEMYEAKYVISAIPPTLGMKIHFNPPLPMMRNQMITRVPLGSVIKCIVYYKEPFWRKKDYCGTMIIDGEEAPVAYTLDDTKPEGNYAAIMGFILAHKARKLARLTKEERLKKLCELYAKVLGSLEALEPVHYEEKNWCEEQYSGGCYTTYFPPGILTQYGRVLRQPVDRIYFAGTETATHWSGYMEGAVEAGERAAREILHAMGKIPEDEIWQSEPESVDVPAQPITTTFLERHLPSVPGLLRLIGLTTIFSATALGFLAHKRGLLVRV
# T1 sequence (O42275 24-633): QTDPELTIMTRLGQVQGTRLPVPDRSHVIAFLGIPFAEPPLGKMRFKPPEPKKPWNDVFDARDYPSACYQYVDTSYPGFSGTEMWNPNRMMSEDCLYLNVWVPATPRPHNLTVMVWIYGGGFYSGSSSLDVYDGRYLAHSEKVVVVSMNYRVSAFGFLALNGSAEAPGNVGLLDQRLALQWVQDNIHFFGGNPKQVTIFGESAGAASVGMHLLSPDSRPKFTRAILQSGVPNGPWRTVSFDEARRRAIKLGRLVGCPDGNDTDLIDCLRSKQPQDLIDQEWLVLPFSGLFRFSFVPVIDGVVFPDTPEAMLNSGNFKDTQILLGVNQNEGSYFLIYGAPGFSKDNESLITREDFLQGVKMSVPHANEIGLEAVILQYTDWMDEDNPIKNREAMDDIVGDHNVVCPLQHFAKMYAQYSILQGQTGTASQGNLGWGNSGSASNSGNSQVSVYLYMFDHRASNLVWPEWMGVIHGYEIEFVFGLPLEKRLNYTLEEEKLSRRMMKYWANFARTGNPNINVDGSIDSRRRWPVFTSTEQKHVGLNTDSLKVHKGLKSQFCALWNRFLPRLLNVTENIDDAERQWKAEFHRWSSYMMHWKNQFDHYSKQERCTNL
# T5 sequence (P22303 32-614): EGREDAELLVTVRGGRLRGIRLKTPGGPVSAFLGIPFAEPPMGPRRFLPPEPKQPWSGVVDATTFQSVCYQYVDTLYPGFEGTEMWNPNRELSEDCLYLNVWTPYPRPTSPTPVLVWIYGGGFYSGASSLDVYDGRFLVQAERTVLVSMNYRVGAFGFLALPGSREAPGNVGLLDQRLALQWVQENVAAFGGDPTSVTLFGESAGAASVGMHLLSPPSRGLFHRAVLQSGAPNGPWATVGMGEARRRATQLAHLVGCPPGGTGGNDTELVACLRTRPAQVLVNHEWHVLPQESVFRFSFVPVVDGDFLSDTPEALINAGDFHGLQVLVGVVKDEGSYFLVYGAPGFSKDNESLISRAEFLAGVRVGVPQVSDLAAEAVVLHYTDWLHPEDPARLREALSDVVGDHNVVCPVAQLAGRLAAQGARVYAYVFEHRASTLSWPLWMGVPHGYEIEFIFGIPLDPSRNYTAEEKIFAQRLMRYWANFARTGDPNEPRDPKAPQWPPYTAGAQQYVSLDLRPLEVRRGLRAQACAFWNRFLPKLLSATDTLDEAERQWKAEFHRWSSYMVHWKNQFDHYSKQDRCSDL
# T3 sequence (P06276 29-602): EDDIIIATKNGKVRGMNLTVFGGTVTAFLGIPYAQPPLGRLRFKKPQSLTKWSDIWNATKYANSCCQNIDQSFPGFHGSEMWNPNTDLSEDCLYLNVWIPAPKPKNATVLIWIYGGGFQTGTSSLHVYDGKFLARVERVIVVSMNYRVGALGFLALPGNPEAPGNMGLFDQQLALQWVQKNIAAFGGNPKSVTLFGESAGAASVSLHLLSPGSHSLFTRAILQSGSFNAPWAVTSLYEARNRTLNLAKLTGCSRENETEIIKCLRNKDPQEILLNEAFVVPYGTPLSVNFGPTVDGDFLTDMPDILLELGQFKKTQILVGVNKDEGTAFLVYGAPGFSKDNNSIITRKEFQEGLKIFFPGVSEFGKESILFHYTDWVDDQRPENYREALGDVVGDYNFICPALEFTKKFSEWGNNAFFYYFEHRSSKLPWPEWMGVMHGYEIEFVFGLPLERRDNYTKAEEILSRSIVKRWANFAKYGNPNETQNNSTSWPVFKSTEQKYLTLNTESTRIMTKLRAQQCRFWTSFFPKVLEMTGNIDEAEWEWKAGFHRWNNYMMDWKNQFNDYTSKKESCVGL
# BuChE from equine serum (eqBuChE), sequence (P81908 whole entry): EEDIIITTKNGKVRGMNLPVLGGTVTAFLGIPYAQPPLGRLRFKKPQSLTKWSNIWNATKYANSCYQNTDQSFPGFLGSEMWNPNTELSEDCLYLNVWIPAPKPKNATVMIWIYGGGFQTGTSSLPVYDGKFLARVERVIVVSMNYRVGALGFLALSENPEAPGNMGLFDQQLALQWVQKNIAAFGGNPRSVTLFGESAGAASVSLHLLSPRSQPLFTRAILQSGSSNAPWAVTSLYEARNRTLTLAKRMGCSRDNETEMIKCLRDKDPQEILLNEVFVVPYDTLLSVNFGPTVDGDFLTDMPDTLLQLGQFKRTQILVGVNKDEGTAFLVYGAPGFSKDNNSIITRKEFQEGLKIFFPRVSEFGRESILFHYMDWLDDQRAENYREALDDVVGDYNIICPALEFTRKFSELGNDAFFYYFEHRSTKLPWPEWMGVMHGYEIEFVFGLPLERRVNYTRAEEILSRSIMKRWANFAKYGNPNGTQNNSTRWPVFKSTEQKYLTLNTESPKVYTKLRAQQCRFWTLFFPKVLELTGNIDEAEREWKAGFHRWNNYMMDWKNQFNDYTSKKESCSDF
# T4 sequence (O42275 24-633): as the sequence (O42275 24-633) above
# eqBuChE, sequence (P81908 whole entry): as the sequence (P81908 whole entry) above
# T2 sequence (Q9Y5N1 whole entry): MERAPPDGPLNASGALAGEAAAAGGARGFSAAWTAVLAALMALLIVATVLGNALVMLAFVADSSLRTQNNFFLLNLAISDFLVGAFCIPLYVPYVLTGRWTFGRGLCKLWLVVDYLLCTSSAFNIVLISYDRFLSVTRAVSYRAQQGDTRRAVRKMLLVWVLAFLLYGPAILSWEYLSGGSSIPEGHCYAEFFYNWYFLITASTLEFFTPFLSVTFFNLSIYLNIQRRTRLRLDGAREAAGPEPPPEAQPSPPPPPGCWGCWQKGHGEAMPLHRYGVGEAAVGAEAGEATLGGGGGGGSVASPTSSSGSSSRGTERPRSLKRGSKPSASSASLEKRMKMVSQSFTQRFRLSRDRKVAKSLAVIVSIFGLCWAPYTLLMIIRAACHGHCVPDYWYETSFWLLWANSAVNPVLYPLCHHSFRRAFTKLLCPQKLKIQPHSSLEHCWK
structure (smiles),measurement,setting,value
"O=C(O)C(=O)O.O=C(c1ccc(F)cc1)c1ccc(OCCCCCN2CCCCC2)cc1 [Compound 6, (4-Fluorophenyl) (4-((5-(piperidin-1-yl)pentyl)oxy)phenyl)methanone hydrogen oxalate]",highest non-toxic concentration,[1],10 µM
same,pIC50,[2],5.64
same,pIC50,[3],6.77 and 6.76
same,effect on viability (MTS test),[4],no increase in the viability
same,concentration decreasing HepG2 cell viability,"hepatoma HepG2 cells; 72 h incubation, MTS",≥ 10 µM
same,concentration range with lack of hepatotoxicity effect,hepatoma HepG2 cells; HepG2 cells,0.1 to 1 µM
same,latency time in the retention trial,mice [5]; 15 mg/kg i.p. in scopolamine-treated mice,47.07 ± 17.56
same,latency time in the retention trial,"mice [5]; 15 mg/kg i.p., without scopolamine",151.89 ± 5.46
same,latency time in the retention trial,mice [5]; 30 mg/kg i.p. in scopolamine-treated mice,51.56 ± 21.17
same,pKi,human H3R,8.10
same,pIC50,[6],5.94
same,% biotransformed,"[7]; MLMs, 120 min, UPLC",around 34%
same,% Remaining,"[7]; MLMs, 120 min incubation",65.95%
same,Metabolic Pathway,"[7]; MLMs, metabolites M1, M2, M3","reduction of carbonyl group hydroxylation reduction of carbonyl group, hydroxylation"
same,metabolic stability (in words),[7]; mouse liver microsomes,moderate metabolic stability
same,remaining at 2 h,"[7]; mouse, mouse liver microsomes, pH 7.4, MLMs, 120 min incubation",66%
same,mechanism of eqBuChE inhibition,eqBuChE,mix type
same,effect on necrosis (LDH test),[8],slight inhibition of the necrosis process
same,Pe ± SD,[9],6.3 ± 0.6 10^−6 cm/s
same,mechanism of eeAChE inhibition,eeAChE,non-competitive
same,Papp,in vitro,6.3 ×10⁻⁶ cm/s
same,ED50,"mice [10]; 0–5 min after formalin, read-out: ED50 phase I (acute pain)",20.9 mg/kg
same,ED50,"mice [10]; 15–30 min after formalin, read-out: ED50 phase II (inflammatory pain)",17.5 mg/kg
same,pIC50,[11],5.02
same,inhibition at 1 µM,hMAO B,25%
